Source: patent publication US10668067B2, “Pyridine sulfonamides” (AMGEN INC., priority 2016, dated 2020)

molecular target: human Nav1.7 (Homo sapiens (Human), UniProt Q15858); assay: Nav 1.7 In Vitro PX Assay (PatchXpress whole cell voltage clamp); format: cell-based; details: in-vitro Nav 1.7 PX data
In short: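 HEK293 cells stably expressing human Nav1.7, automated whole-cell clamp at a holding potential giving 20–50% inactivation; 20 ms steps to −10 mV at 0.1 Hz. One concentration per cell for 3 min; peak current inhibition at end of exposure, 3–5 cells per concentration, IC50 fitted from % inhibition.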

Chain of human Nav1.7 (Q15858 whole entry): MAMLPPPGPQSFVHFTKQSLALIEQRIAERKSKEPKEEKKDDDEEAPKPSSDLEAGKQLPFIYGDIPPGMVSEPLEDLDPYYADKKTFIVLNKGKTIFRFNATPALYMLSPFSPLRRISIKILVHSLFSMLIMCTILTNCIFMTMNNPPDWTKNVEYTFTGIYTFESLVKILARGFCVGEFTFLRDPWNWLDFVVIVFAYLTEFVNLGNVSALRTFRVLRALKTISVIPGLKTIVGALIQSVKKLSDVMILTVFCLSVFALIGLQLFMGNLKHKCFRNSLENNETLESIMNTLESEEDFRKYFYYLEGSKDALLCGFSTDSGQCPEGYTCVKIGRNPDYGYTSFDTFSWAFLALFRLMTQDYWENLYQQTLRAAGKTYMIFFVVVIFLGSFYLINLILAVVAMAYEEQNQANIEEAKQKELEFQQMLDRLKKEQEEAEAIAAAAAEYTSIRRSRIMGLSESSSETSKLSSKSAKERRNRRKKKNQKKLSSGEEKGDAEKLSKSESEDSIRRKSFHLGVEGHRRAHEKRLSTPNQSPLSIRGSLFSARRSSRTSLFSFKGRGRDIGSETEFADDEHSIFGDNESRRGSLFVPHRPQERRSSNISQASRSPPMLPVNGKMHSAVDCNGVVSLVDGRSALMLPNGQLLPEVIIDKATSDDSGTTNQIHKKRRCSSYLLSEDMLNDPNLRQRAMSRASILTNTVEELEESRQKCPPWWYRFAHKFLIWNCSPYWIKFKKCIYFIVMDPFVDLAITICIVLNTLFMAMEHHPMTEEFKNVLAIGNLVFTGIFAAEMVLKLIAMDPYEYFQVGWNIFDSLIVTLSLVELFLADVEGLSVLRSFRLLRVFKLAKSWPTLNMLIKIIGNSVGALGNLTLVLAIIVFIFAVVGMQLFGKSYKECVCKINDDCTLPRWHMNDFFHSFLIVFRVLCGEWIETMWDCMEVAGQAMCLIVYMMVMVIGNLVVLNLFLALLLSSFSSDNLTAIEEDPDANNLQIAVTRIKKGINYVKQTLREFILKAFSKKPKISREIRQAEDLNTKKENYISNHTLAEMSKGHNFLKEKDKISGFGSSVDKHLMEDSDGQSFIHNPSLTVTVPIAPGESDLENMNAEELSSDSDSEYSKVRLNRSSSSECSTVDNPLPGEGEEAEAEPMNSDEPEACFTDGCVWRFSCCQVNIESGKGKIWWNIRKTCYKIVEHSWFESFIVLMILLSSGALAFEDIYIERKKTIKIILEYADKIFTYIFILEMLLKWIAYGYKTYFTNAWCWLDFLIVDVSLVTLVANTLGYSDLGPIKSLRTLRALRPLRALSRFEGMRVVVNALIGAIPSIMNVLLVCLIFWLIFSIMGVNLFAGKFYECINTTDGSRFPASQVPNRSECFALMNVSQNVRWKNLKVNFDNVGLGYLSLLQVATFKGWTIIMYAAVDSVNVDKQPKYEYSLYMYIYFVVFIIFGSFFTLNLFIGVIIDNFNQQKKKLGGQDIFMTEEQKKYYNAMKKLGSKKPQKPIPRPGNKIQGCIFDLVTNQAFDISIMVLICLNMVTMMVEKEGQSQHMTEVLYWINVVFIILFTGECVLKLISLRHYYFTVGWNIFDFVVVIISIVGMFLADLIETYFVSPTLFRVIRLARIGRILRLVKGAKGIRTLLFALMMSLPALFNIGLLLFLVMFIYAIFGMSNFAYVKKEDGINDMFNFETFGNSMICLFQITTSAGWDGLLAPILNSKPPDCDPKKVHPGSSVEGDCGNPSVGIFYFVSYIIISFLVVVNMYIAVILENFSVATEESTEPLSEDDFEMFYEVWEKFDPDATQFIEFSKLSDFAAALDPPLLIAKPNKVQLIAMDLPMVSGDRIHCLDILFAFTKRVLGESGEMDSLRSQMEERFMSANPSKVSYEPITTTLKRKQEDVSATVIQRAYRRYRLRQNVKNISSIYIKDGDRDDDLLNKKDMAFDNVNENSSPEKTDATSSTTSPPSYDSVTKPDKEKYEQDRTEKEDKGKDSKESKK

Question: Which IC50 does the source give for `CNC(=O)N(c1ccc(S(=O)(=O)Nc2ncccn2)cn1)c1cc(Cl)c(-c2ccc(Cl)c(OC)c2)cc1OC` [Example 1-77, 6-((2,4′-dichloro-3′,5-dimethoxy-4-biphenylyl)(methylcarbamoyl)amino)-N-2-pyrimidinyl-3-pyridinesulfonamide] here?
Answer: 70 nM

Question: For `CNC(=O)N(c1ccc(S(=O)(=O)Nc2ncccn2)cn1)c1cc(Cl)c(-c2cc(Cl)cc(C#N)c2)cc1OC` [Example 1-78, 6-((2,3′-dichloro-5′-cyano-5-methoxy-4-biphenylyl)(methylcarbamoyl)amino)-N-2-pyrimidinyl-3-pyridinesulfonamide], which IC50 is on record?
Answer: 123 nM

Question: How did the IC50 turn out when `CNC(=O)N(c1ccc(S(=O)(=O)Nc2ncccn2)cn1)c1cc(Cl)c(-c2cc(OC)cc(OC)c2)cc1OC` [Example 1-79, 6-((2-chloro-3′,5,5′-trimethoxy-4-biphenylyl)(methylcarbamoyl)amino)-N-2-pyrimidinyl-3-pyridinesulfonamide] was run?
Answer: 166 nM

Question: For `CNC(=O)N(c1ccc(S(=O)(=O)Nc2ncccn2)cn1)c1cc(F)c(-c2ccc(Cl)c(C)c2)cc1OC` [Example 1-80, 6-((4′-chloro-2-fluoro-5-methoxy-3′-methyl-4-biphenylyl)(methylcarbamoyl)amino)-N-2-pyrimidinyl-3-pyridinesulfonamide], which IC50 is on record?
Answer: 39 nM

Question: How did the IC50 turn out when `CNC(=O)N(c1ccc(S(=O)(=O)Nc2ncccn2)cn1)c1cc(F)c(-c2cccc(C(F)(F)F)c2)cc1OC` [Example 1-81, 6-((2-fluoro-5-methoxy-3′-(trifluoromethyl)-4-biphenylyl)(methylcarbamoyl)amino)-N-2-pyrimidinyl-3-pyridinesulfonamide] was run?
Answer: 143 nM

Question: With `CNC(=O)N(c1ccc(S(=O)(=O)Nc2ncccn2)cn1)c1cc(F)c(-c2cc(OC)cc(C(F)(F)F)c2)cc1OC` [Example 1-82, 6-((2-fluoro-3′,5-dimethoxy-5′-(trifluoromethyl)-4-biphenylyl)(methylcarbamoyl)amino)-N-2-pyrimidinyl-3-pyridinesulfonamide] as the compound, how does the IC50 read?
Answer: 18 nM

Question: For `CNC(=O)N(c1ccc(S(=O)(=O)Nc2ncccn2)cn1)c1cc(F)c(-c2ccc(Cl)c(Cl)c2)cc1OC` [Example 1-83, 6-((3′,4′-dichloro-2-fluoro-5-methoxy-4-biphenylyl)(methylcarbamoyl)amino)-N-2-pyrimidinyl-3-pyridinesulfonamide], which IC50 is on record?
Answer: 32 nM

Question: For `CNC(=O)N(c1ccc(S(=O)(=O)Nc2ncccn2)cn1)c1cc(F)c(-c2cccc(OC(F)(F)F)c2)cc1OC` [Example 1-84, 6-((2-fluoro-5-methoxy-3′-(trifluoromethoxy)-4-biphenylyl)(methylcarbamoyl)amino)-N-2-pyrimidinyl-3-pyridinesulfonamide], which IC50 is on record?
Answer: 62 nM

Question: How did the IC50 turn out when `CNC(=O)N(c1ccc(S(=O)(=O)Nc2ncccn2)cn1)c1cc(F)c(-c2ccc(F)c(C(F)(F)F)c2)cc1OC` [Example 1-85, 6-((2,4′-difluoro-5-methoxy-3′-(trifluoromethyl)-4-biphenylyl)(methylcarbamoyl)amino)-N-2-pyrimidinyl-3-pyridinesulfonamide] was run?
Answer: 32 nM

Question: Which IC50 does the source give for `CNC(=O)N(c1ccc(S(=O)(=O)Nc2ncccn2)cn1)c1cc(F)c(-c2cc(F)c(F)c(F)c2)cc1OC` [Example 1-86, 6-((methylcarbamoyl)(2,3′,4′,5′-tetrafluoro-5-methoxy-4-biphenylyl)amino)-N-2-pyrimidinyl-3-pyridinesulfonamide] here?
Answer: 220 nM

Question: How did the IC50 turn out when `CNC(=O)N(c1ccc(S(=O)(=O)Nc2ncccn2)cn1)c1cc(F)c(-c2ccc(F)c(OCC(F)(F)F)c2)cc1OC` [Example 1-88, 6-((2,4′-difluoro-5-methoxy-3′-(2,2,2-trifluoroethoxy)-4-biphenylyl)(methylcarbamoyl)amino)-N-2-pyrimidinyl-3-pyridinesulfonamide] was run?
Answer: 40 nM

Question: Which IC50 does the source give for `CNC(=O)N(c1ccc(S(=O)(=O)Nc2ncccn2)cn1)c1cc(F)c(-c2ccc(Cl)c(C(F)(F)F)c2)cc1OC` [Example 1-89, 6-((4′-chloro-2-fluoro-5-methoxy-3′-(trifluoromethyl)-4-biphenylyl)(methylcarbamoyl)amino)-N-2-pyrimidinyl-3-pyridinesulfonamide] here?
Answer: 45 nM

Question: With `CONC(=O)N(c1ccc(S(=O)(=O)Nc2ccon2)cn1)c1cc(F)c(-c2cccc(C(F)(F)F)c2)cc1OC` [Example 1-90, 6-((2-fluoro-5-methoxy-3′-(trifluoromethyl)-4-biphenylyl)(methoxycarbamoyl)amino)-N-3-isoxazolyl-3-pyridinesulfonamide] as the compound, how does the IC50 read?
Answer: 69 nM

Question: How did the IC50 turn out when `CNC(=O)N(c1ccc(S(=O)(=O)Nc2ncccn2)cn1)c1cc(F)c(-c2ccc(F)c(Cl)c2)cc1OC` [Example 2-1, 6-((3′-chloro-2,4′-difluoro-5-methoxy-4-biphenylyl)(methylcarbamoyl)amino)-N-2-pyrimidinyl-3-pyridinesulfonamide] was run?
Answer: 18 nM

Question: With `CNC(=O)N(c1ccc(S(=O)(=O)Nc2ncccn2)cn1)c1cc(F)c(-c2ccc(F)c(C(F)F)c2)cc1OC` [Example 2-2, 6-((3′-(difluoromethyl)-2,4′-difluoro-5-methoxy-4-biphenylyl)(methylcarbamoyl)amino)-N-2-pyrimidinyl-3-pyridinesulfonamide] as the compound, how does the IC50 read?
Answer: 7 nM

Question: How did the IC50 turn out when `CNC(=O)N(c1ccc(S(=O)(=O)Nc2cccnn2)cn1)c1cc(Cl)c(-c2ccc(F)c(OCC(F)(F)F)c2)cc1OC` [Example 2-4, 6-((2-chloro-4′-fluoro-5-methoxy-3′-(2,2,2-trifluoroethoxy)-4-biphenylyl)(methylcarbamoyl)amino)-N-3-pyridazinyl-3-pyridinesulfonamide] was run?
Answer: 54 nM

Question: With `CNC(=O)N(c1ccc(S(=O)(=O)Nc2cccnn2)cn1)c1cc(Cl)c(-c2cc(F)c(F)c(F)c2)cc1OC` [Example 2-5, 6-((2-chloro-3′,4′,5′-trifluoro-5-methoxy-4-biphenylyl)(methylcarbamoyl)amino)-N-3-pyridazinyl-3-pyridinesulfonamide] as the compound, how does the IC50 read?
Answer: 75 nM

Question: With `CNC(=O)N(c1ccc(S(=O)(=O)Nc2cccnn2)cn1)c1cc(Cl)c(-c2cc(OC)nc(C(F)(F)F)c2)cc1OC` [Example 2-6, 6-((5-chloro-2-methoxy-4-(2-methoxy-6-(trifluoromethyl)-4-pyridinyl)phenyl)(methylcarbamoyl)amino)-N-3-pyridazinyl-3-pyridinesulfonamide] as the compound, how does the IC50 read?
Answer: 26 nM

Question: Which IC50 does the source give for `CNC(=O)N(c1ccc(S(=O)(=O)Nc2ncccn2)cn1)c1ccc(-c2ccc(F)c(OC(F)(F)F)c2)cc1OC` [Example 2-7, 6-((4′-fluoro-3-methoxy-3′-(trifluoromethoxy)-4-biphenylyl)(methylcarbamoyl)amino)-N-2-pyrimidinyl-3-pyridinesulfonamide] here?
Answer: 4 nM

Question: Which IC50 does the source give for `CNC(=O)N(c1ccc(S(=O)(=O)Nc2ncccn2)cn1)c1ccc(-c2ccc(F)c(C(F)(F)F)c2)cc1OC` [Example 2-8, 6-((4′-fluoro-3-methoxy-3′-(trifluoromethyl)-4-biphenylyl)(methylcarbamoyl)amino)-N-2-pyrimidinyl-3-pyridinesulfonamide] here?
Answer: 17 nM

Question: How did the IC50 turn out when `CNC(=O)N(c1ccc(S(=O)(=O)Nc2ncccn2)cn1)c1cc(Cl)c(-c2ccc(F)c(OC(F)(F)F)c2)cc1OC` [Example 2-10, 6-((2-chloro-4′-fluoro-5-methoxy-3′-(trifluoromethoxy)-4-biphenylyl)(methylcarbamoyl)amino)-N-2-pyrimidinyl-3-pyridinesulfonamide] was run?
Answer: 8 nM

Question: For `CCCCCCCCCCCCCCc1cc(OC)c(N(C(=O)NC)c2ccc(S(=O)(=O)Nc3ncccn3)cn2)cc1F` [Example 2-11, 6-(1-(5-Fluoro-2-methoxy-4-tetradecylphenyl)-3-methylureido)-N-(pyrimidin-2-yl)pyridine-3-sulfonamide], which IC50 is on record?
Answer: 14 nM

Question: How did the IC50 turn out when `CNC(=O)N(c1ccc(S(=O)(=O)Nc2nocc2C)cn1)c1cc(F)c(-c2ccc(F)c(OC(F)(F)F)c2)cc1OC` [Example 2-12, 6-(1-(2,4′-difluoro-5-methoxy-3′-(trifluoromethoxy)-[1,1′-biphenyl]-4-yl)-3-methylureido)-N-(4-methylisoxazol-3-yl)pyridine-3-sulfonamide] was run?
Answer: 63.5 nM

Question: `CNC(=O)N(c1ccc(S(=O)(=O)Nc2nocc2C)cn1)c1cc(F)c(-c2ccc(F)c(C(F)(F)F)c2)cc1OC` [Example 2-13, 6-(1-(2,4′-difluoro-5-methoxy-3′-(trifluoromethyl)-[1,1′-biphenyl]-4-yl)-3-methylureido)-N-(4-methylisoxazol-3-yl)pyridine-3-sulfonamide] was tested. Which IC50 did it give?
Answer: 116 nM

Question: `CNC(=O)N(c1ccc(S(=O)(=O)Nc2nocc2C)cn1)c1cc(F)c(-c2ccc(F)c(OCC(F)(F)F)c2)cc1OC` [Example 2-14, 6-(1-(2,4′-difluoro-5-methoxy-3′-(2,2,2-trifluoroethoxy)-[1,1′-biphenyl]-4-yl)-3-methylureido)-N-(4-methylisoxazol-3-yl)pyridine-3-sulfonamide] was tested. Which IC50 did it give?
Answer: 621 nM

Question: Which IC50 does the source give for `CNC(=O)N(c1ccc(S(=O)(=O)Nc2ncccn2)cn1)c1cc(Cl)c(-c2ccc(F)c(OCC(F)(F)F)c2)cc1OC` [Example 3-1, 6-((2-chloro-4′-fluoro-5-methoxy-3′-(2,2,2-trifluoroethoxy)-4-biphenylyl)(methylcarbamoyl)amino)-N-2-pyrimidinyl-3-pyridinesulfonamide] here?
Answer: 33 nM

Question: How did the IC50 turn out when `CNC(=O)N(c1ccc(S(=O)(=O)Nc2cnsn2)cn1)c1cc(Cl)c(-c2ccc(F)c(OCC(F)(F)F)c2)cc1OC` [Example 3-2, 6-((2-chloro-4′-fluoro-5-methoxy-3′-(2,2,2-trifluoroethoxy)-4-biphenylyl)(methylcarbamoyl)amino)-N-1,2,5-thiadiazol-3-yl-3-pyridinesulfonamide] was run?
Answer: 31 nM

Question: How did the IC50 turn out when `CNC(=O)N(c1ccc(S(=O)(=O)Nc2cccc(F)n2)cn1)c1cc(Cl)c(-c2ccc(F)c(OCC(F)(F)F)c2)cc1OC` [Example 3-3, 6-((2-chloro-4′-fluoro-5-methoxy-3′-(2,2,2-trifluoroethoxy)-4-biphenylyl)(methylcarbamoyl)amino)-N-(6-fluoro-2-pyridinyl)-3-pyridinesulfonamide] was run?
Answer: 73 nM

Question: For `CNC(=O)N(c1ccc(S(=O)(=O)Nc2ncco2)cn1)c1cc(Cl)c(-c2ccc(F)c(OCC(F)(F)F)c2)cc1OC` [Example 3-4, 6-((2-chloro-4′-fluoro-5-methoxy-3′-(2,2,2-trifluoroethoxy)-4-biphenylyl)(methylcarbamoyl)amino)-N-1,3-oxazol-2-yl-3-pyridinesulfonamide], which IC50 is on record?
Answer: 53 nM
